Patent US20230143612A1 (Arbutus Biopharma Corporation, priority 2020, published 2023)

biological target: PD-L1 His protein / PD-1 Fc protein (Homo sapiens, UniProt Q9NZQ7); test: HTRF Assay (PD-1/PD-L1 interaction); assay type: binding; settings: PD-L1 His 6 nM, PD-1 Fc 6 nM
Procedure, shortened: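 HTRF: PD-L1 His (6 nM final), compound (3-fold dilutions, 20 μM to 0.001 μM final) and PD-1 Fc (6 nM final) preincubated 15 min at room temperature. Anti-human IgG-XL665 and anti-6HIS Tb cryptate (mixed at 6.7 nM and 0.35 nM) then added for 1 h at room temperature before reading.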

Sequence of PD-L1 His protein / PD-1 Fc protein (Q9NZQ7 19-238 limits assumed): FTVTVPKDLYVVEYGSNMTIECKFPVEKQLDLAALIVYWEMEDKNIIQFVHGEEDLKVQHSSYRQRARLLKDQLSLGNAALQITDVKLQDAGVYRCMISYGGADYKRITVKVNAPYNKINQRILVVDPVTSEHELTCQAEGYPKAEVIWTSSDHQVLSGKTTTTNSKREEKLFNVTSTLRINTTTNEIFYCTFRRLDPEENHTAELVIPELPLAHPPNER

Structure (SMILES) | IC50 [nM]
COc1nc(-c2cccc(-c3cccc(-c4ccc5c(n4)N(C)CCC5NC[C@@H]4CCC(=O)N4)c3Cl)c2Cl)ccc1CNC[C@@H]1CCC(=O)N1 (mixture of isomers) [Example 51, (5S)-5-(((7-(2,2′-Dichloro-3′-(6-methoxy-5-(((((S)-5-oxopyrrolidin-2-yl)methyl)amino)methyl)pyridin-2-yl)-[1,1′-biphenyl]-3-yl)-1-methyl-1,2,3,4-tetrahydro-1,8-naphthyridin-4-yl)amino)methyl)pyrrolidin-2-one] | 2.9
COC(=O)CNCc1ccc(-c2cccc(-c3cccc(-c4ccn5c(=O)c(CNC[C@@H]6CCC(=O)N6)cnc5c4)c3Cl)c2Cl)nc1OC [Example 124, Methyl (S)-((6-(2,2′-dichloro-3′-(4-oxo-3-((((5-oxopyrrolidin-2-yl)methyl)amino)methyl)-4H-pyrido[1,2-a]pyrimidin-8-yl)-[1,1′-biphenyl]-3-yl)-2-methoxypyridin-3-yl)methyl)glycinate] | 3.8
COc1nc(-c2cccc(-c3cccc(-c4ccc5[nH]c(CNC[C@@H]6CCC(=O)N6)c(Cl)c5n4)c3Cl)c2Cl)ccc1CNC[C@@H]1CCC(=O)N1 [Example 385, (S)-5-((((3-Chloro-5-(2,2′-dichloro-3′-(6-methoxy-5-(((((S)-5-oxopyrrolidin-2-yl)methyl)-amino)methyl)-pyridin-2-yl)-[1,1′-biphenyl]-3-yl)-1H-pyrrolo[3,2-b]-pyridin-2-yl)methyl)-amino)methyl)-pyrrolidin-2-one] | 13
COc1nc(-c2cccc(-c3cccc(-c4ccn5c(=O)c(CNC[C@@H]6CCC(=O)N6)cnc5c4)c3C)c2C)ccc1CNC[C@@H]1CCC(=O)N1 [Example 31, 8-(3′-(6-Methoxy-5-(((((S)-5-oxopyrrolidin-2-yl)methyl)amino)methyl)pyridin-2-yl)-2,2′-dimethyl-[1,1′-biphenyl]-3-yl)-3-(((((S)-5-oxopyrrolidin-2-yl)methyl)amino)methyl)-4H-pyrido[1,2-a]pyrimidin-4-one] | 2.3
COc1nc(-c2cccc(-c3cccc(-c4ccn5c(=O)c(CNCC6(O)CCC6)cnc5c4)c3Cl)c2Cl)ccc1CNC[C@@H]1CCC(=O)N1 [Example 233, (S)-8-(2,2′-Dichloro-3′-(6-methoxy-5-((((5-oxopyrrolidin-2-yl)methyl)amino)methyl)pyridin-2-yl)-[1,1′-biphenyl]-3-yl)-3-((((1-hydroxycyclobutyl)methyl)amino)methyl)-4H-pyrido[1,2-a]pyrimidin-4-one] | 0.2
COc1nc(-c2cccc(-c3cccc(-c4ccn5c(=O)c(CNC(C)(C)C(=O)O)cnc5c4)c3Cl)c2Cl)ccc1CNC[C@@H]1CCC(=O)N1 [Example 184, (S)-2-(((8-(2,2′-Dichloro-3′-(6-methoxy-5-((((5-oxopyrrolidin-2-yl)methyl)amino)methyl)pyridin-2-yl)-[1,1′-biphenyl]-3-yl)-4-oxo-4H-pyrido[1,2-a]pyrimidin-3-yl)methyl)amino)-2-methylpropanoic acid] | 0.1
COC(=O)C(C)(C)CNCc1cnc2cc(-c3cccc(-c4cccc(-c5ccc(CNC[C@@H]6CCC(=O)N6)c(OC)n5)c4Cl)c3Cl)ccn2c1=O [Example 384, methyl (S)-3-(((8-(2,2′-dichloro-3′-(6-methoxy-5-((((5-oxopyrrolidin-2-yl)-methyl)-amino)-methyl)-pyridin-2-yl)-[1,1′-biphenyl]-3-yl)-4-oxo-4H-pyrido[1,2-a]pyrimidin-3-yl)-methyl)-amino)-2,2-dimethylpropanoate] | 2.7
COc1cc(-c2cccc(-c3cccc(-c4ccc(CNC[C@@H]5CCC(=O)N5)c(OC)n4)c3Cl)c2Cl)cc2c1CN(CC(O)C(C)C)CC2 (stereo partly drawn) [Example 488, (5S)-5-((((6-(2,2′-Dichloro-3′-(2-(2-hydroxy-3-methylbutyl)-8-methoxy-1,2,3,4-tetrahydroisoquinolin-6-yl)-[1,1′-biphenyl]-3-yl)-2-methoxypyridin-3-yl)methyl)amino)methyl)pyrrolidin-2-one] | 0.2
O=C1CC[C@@H](CNCc2nc3cc(-c4cccc(-c5cccc(-c6ccn7c(=O)c(CNC[C@@H]8CCC(=O)N8)cnc7c6)c5Cl)c4Cl)ccn3c2Cl)N1 [Example 429, 8-[2-Chloro-3-[2-chloro-3-[3-chloro-2-[[[(2S)-5-oxopyrrolidin-2-yl]methylamino]methyl]imidazo[1,2-a]pyridin-7-yl]phenyl]phenyl]-3-[[[(2S)-5-oxopyrrolidin-2-yl]methylamino]methyl]pyrido[1,2-a]pyrimidin-4-one] | 240
COc1nc(-c2cccc(-c3cccc(-c4ccn5c(=O)c(CNCCCO)cnc5c4)c3Cl)c2Cl)ccc1CNC[C@@H]1CCC(=O)N1 [Example 316, (S)-8-(2,2′-Dichloro-3′-(6-methoxy-5-((((5-oxopyrrolidin-2-yl)methyl)-amino)methyl)-pyridin-2-yl)-[1,1′-biphenyl]-3-yl)-3-(((3-hydroxypropyl)amino)methyl)-4H-pyrido[1,2-a]pyrimidin-4-one] | 0.3
COc1nc(-c2cccc(-c3cccc(-c4ccn5c(=O)c6c(nc5c4)N(C)CCNC6)c3Cl)c2Cl)ccc1CNC[C@@H]1CCC(=O)N1 [Example 374, (S)-10-(2,2′-Dichloro-3′-(6-methoxy-5-((((5-oxopyrrolidin-2-yl)methyl)amino)methyl)pyridin-2-yl)-[1,1′-biphenyl]-3-yl)-1-methyl-2,3,4,5-tetrahydropyrido[1′,2′:1,2]pyrimido [4,5-e][1,4]diazepin-6(1H)-one] | 6.5
COc1nc(-c2cccc(-c3cccc(-c4cnc5c(c4)CCCC5NC[C@@H]4CCC(=O)N4)c3Cl)c2Cl)ccc1CNC[C@@H]1CCC(=O)N1 (stereo partly drawn) [Example 432, (5S)-5-(((3-(2,2′-Dichloro-3′-(6-methoxy-5-(((((S)-5-oxopyrrolidin-2-yl)-methyl)-amino)methyl)-pyridin-2-yl)-[1,1′-biphenyl]-3-yl)-5,6,7,8-tetrahydroquinolin-8-yl)amino)-methyl)-pyrrolidin-2-one] | 270
COc1nc(-c2cccc(-c3cccc(-c4ccc5nn(CCCN(CC(C)C)CC(C)C)c(=O)n5c4)c3Cl)c2Cl)ccc1CNC[C@@H]1CCC(=O)N1 [Example 392, (S)-6-(2,2′-Dichloro-3′-(6-methoxy-5-((((5-oxopyrrolidin-2-yl)methyl)-amino)-methyl)pyridin-2-yl)-[1,1′-biphenyl]-3-yl)-2-(3-(diisobutylamino)propyl)-[1,2,4]triazolo[4,3-a]pyridin-3(2H)-one] | 6.7
COc1nc(-c2cccc(-c3cccc(-c4ccn5c(=O)c(CN[C@H]6C[C@@](C)(O)C6)c(C)nc5c4)c3Cl)c2Cl)ccc1CNC[C@@H]1CCC(=O)N1 [Example 229, 8-(2,2′-Dichloro-3′-(6-methoxy-5-(((((S)-5-oxopyrrolidin-2-yl)methyl)amino)methyl)pyridin-2-yl)-[1,1′-biphenyl]-3-yl)-3-((((1s,3s)-3-hydroxy-3-methylcyclobutyl)amino)methyl)-2-methyl-4H-pyrido[1,2-a]pyrimidin-4-one] | 6.9
COc1nc(-c2cccc(-c3cccc(-c4cc(OC)c5c(CNC[C@@H]6CCC(=O)N6)cnn5c4)c3Cl)c2Cl)ccc1CNC[C@@H]1CCC(=O)N1 [Example 397] | 290
